{"source": "paper PMC9596752", "about": "“Investigation of anti-diabetic potential and molecular simulation studies of dihydropyrimidinone derivatives” (Frontiers in Endocrinology, 2022)", "target": "α-glucosidase", "experiment": "in vitro α-glucosidase inhibition assay, absorbance at […] nm", "assay_type": "biochemical, Saccharomyces cerevisiae"}
{"compound": "O=C1NC2=C(C(=O)N(Cc3ccccc3)C2)C(c2ccc(O)cc2)N1", "note": "(stereo not shown) [A, 6-benzyl-4-(4-hydroxyphenyl)-3,4,6,7-tetrahydro-1H-pyrrolo[3,4-d]pyrimidine-2,5-dione]", "values": [{"measurement": "IC50", "result": 1.02, "unit": "µg/mL"}]}
